Measurements: patent US6653529B2, “Use of the maize X112 mutant ahas 2 gene and imidazolinone herbicides for selection of transgenic monocots, maize, rice and wheat plants resistant to the imidazolinone herbicides” (BASF Aktiengesellschaft, priority 2000, dated 2003)

Key:
[1] = tested on: untransformed Nortai (Nt) rice plants; test: Greenhouse spray test of rice with PURSUIT imazethapyr (pre- and post-emergence); format: in vivo; details: for No. panicles/plant Mean / No. tillers/plant Mean / Plant height Mean / Yield % 0× / Yield Mean: Nt
[2] = tested on: transgenic corn hybrids BAa-4 and MAa-7; test: Greenhouse spray test of corn, statements of the text on both transgenic lines; format: in vivo; details: 4× (160 g/ha)
Text: Grow one corn plant per pot (5×5 inch) in a 3×5 flat till three- to four-leaf stage (about 9 to 13 days depending on the weather). On the day of spraying, water the plants well and let excess water drip out. Spray plants on a belt-sprayer with the imidazolinone herbicides at desired rates. […] When temperature was too high, base water plants to prevent wilting. Closely observe the plants for the next two to three weeks. Symptoms of herbicide injury will be visible three days after spraying and susceptible plants will die within two to three weeks depending on temperature.
The plants were rated on a scale of 0-5 with 0 for dead plants and 5 for healthy plants with no or minimum injury.
Two transgenic hybrids BAa-4 and MAa-7 lines (see FIG. 5 for their pedigree), a non-transformed control line B×A (B73×A188), 8962IT (heterozygous XI12 imi-tolerant corn line), 8962 (wild type control) and 3395IR (homozygous XA17 imi-resistant corn line) (8962IT and 8962 were from ICI, now Garst Seed Company, Slater, Iowa 50244, and 3395IR was from Pioneer Hi-Bred International Inc, Iowa 50306-3453). Plants were sprayed with 4, 8, 16 or 20×PURSUIT® imazethapyr, ARSENAL® imazapyr, CADRE® imazameth or RAPTOR® imazamox. Plants were scored 0 to 5 (with 0 being dead plants, 5 being healthy plants with no injury) individually 16 days after herbicide treatments. […]

[3] = post-emergence, Rate 63 (g ai/ha)
[4] = post-emergence, Rate 125 (g ai/ha)
[5] = post-emergence, Rate 250 (g ai/ha)

CCc1cnc(C2=NC(C)(C(C)C)C(=O)N2)c(C(=O)O)c1 (centres unmarked) [PURSUIT ®, imazethapyr]
reduction in plant height ([1]; Nortai, pre-emergence, 63 g/ha): about 20%
reduction in yield ([1]; Nortai, pre-emergence, 63 g/ha): ~40%
No. panicles/plant Mean [1, 3]: 15.7
No. tillers/plant Mean [1, 3]: 20.0
Plant height Mean [1, 3]: 117.3 cm
Yield % 0× [1, 3]: 99 % 0×
Yield Mean [1, 3]: 227.0 g/5 plants
No. panicles/plant Mean [1, 4]: 13.9
No. tillers/plant Mean [1, 4]: 13.5
Plant height Mean [1, 4]: 94.5 cm
Yield % 0× [1, 4]: 52 % 0×
Yield Mean [1, 4]: 120.0 g/5 plants
No. panicles/plant Mean [1, 5]: 0
No. tillers/plant Mean [1, 5]: 0
Plant height Mean [1, 5]: 0 cm
Yield % 0× [1, 5]: 0 % 0×
Yield Mean [1, 5]: 0 g/5 plants
No. panicles/plant Mean ([1]; pre-emergence, 63 g/ha): 5.7
No. tillers/plant Mean ([1]; pre-emergence, 63 g/ha): 6.5
Plant height Mean ([1]; pre-emergence, 63 g/ha): 98.0 cm
Yield % 0× ([1]; pre-emergence, 63 g/ha): 56 % 0×
Yield Mean ([1]; pre-emergence, 63 g/ha): 110.7 g/5 plants
No. panicles/plant Mean ([1]; pre-emergence, 125 g/ha): 0
No. tillers/plant Mean ([1]; pre-emergence, 125 g/ha): 0
Plant height Mean ([1]; pre-emergence, 125 g/ha): 0 cm
Yield % 0× ([1]; pre-emergence, 125 g/ha): 0 % 0×
Yield Mean ([1]; pre-emergence, 125 g/ha): 0 g/5 plants
No. panicles/plant Mean ([1]; pre-emergence, 250 g/ha): 0
No. tillers/plant Mean ([1]; pre-emergence, 250 g/ha): 0
Plant height Mean ([1]; pre-emergence, 250 g/ha): 0 cm
Yield % 0× ([1]; pre-emergence, 250 g/ha): 0 % 0×
Yield Mean ([1]; pre-emergence, 250 g/ha): 0 g/5 plants
fate of control plants ([1]; post-emergence, 250 g ai/ha): killed all plants
fate of control (Nortai) plants ([1]; pre-emergence, 125 and 250 g/ha): completely killed

COCc1cnc(C2=NC(C)(C(C)C)C(=O)N2)c(C(=O)O)c1 (centres unmarked) [RAPTOR ®, imazamox]
injury to transgenic corn plants [2]: no or slight injury
